Experimental data reported in paper PMC10139132, “Immobilization of M3 Muscarinic Receptor to Rapidly Analyze Drug—Protein Interactions and Bioactive Components in a Natural Plant” (International Journal of Molecular Sciences, 2023).
Where a name gives a salt, the structure may show the parent alone.

How the values were obtained:
[1] = system: immobilized M3R; test: Specificity of the M3R-immobilized column (retention times of ligands); type: binding
[2] = system: immobilized M3R; test: Identification of M3R-binding bioactive compounds in Daturae Flos extract on M3R-immobilized column with HPLC-MS; conditions: retained peak 2 of Daturae Flos extract, identified by HPLC-MS/MS
Experimental: The heating under reflux method was used to make the anhydrous extract of […]. In brief, 10 g of dried DF was soaked in 100 mL of water for 0.5 h, boiled for 2 × 1 h, filtered, and concentrated to 10 mL via rotary evaporation at 60 °C under reduced pressure. A solution of 95% ethanol was applied to carry out alcohol sedimentation to reduce the alcohol content of the concentrated extract to 75%. The liquid supernatant was concentrated at 60 °C to obtain an herbal solution of 1.0 g/mL.
The M3R-immobilized column was utilized to analyze the active components in the DF extract with an Agilent 1100 chromatographic system. The mobile phase was 5 mM ammonium acetate buffer, the flow rate was 0.3 mL/min, the sample volume was 10 μL, and the detection wavelength was 254 nm. […] It was further analyzed using high performance liquid chromatography (HPLC)–mass spectrometry (MS).
An Eclipse XDB-C18 column (2.1 × 150 mm, 3.5 μm) was employed for chromatographic analysis with a 0.1% formic acid solution and methanol (40:60, v/v) as the mobile phase, a flow rate of 0.3 mL/min, and a column temperature of 30 °C. The MS analysis was carried out in both negative and positive modes with a scan range of 100–2000 amu, a nebulizing gas pressure of 30 psi, a flow rate of 8.0 L/min, and a dry gas temperature of […], respectively.

[3] = system: M3 muscarinic receptor (M3R); type: binding
[4] = system: M3 muscarinic receptor (M3R); type: binding; conditions: immobilized M3R column; flow rates 0.4-3.6 mL/min
[5] = molecular target: muscarinic M3 receptor; conditions: cited from earlier work
[6] = phosphate buffer 20 mM pH 7.4, flow rate 0.2 mL/min, injection 10 μL

For CC[C@@H]1C(=O)OC[C@@H]1Cc1cncn1C [Pilocarpine], the “retention time on the M3R-immobilized column” value (from here on “retention time”) [1, 6] was 5.4 min.
In the case of CN1[C@@H]2CC[C@H]1C[C@@H](OC(=O)[C@H](CO)c1ccccc1)C2 [Hyoscyamine, hyoscyamine], the “binding to M3R of compounds from the DF extract” value [2] is reported as “bind to M3R”.
In the case of CN1[C@@H]2C[C@@H](OC(=O)[C@H](CO)c3ccccc3)C[C@H]1[C@@H]1O[C@@H]12 [scopolamine], the “binding to M3R of compounds from the DF extract” value [2] is reported as “bind to M3R”.
In the case of CN1[C@@H]2CC[C@H]1C[C@@H](OC(=O)C(CO)c1ccccc1)C2 (stereo partly shown) [Atropine sulfate, atropine sulfate], the “KA by Frontal Analysis (association constant)” value [3] is reported as “(3.71 ± 0.03) × 10^4 M^−1” and the “kd by the Peak Profiling Method (dissociation rate constant)” value [4] is reported as 0.238 ± 0.00283 s⁻¹.
For CN1[C@@H]2CC(OC(=O)[C@H](CO)c3ccccc3)C[C@H]1[C@@H]1O[C@@H]12.Cl (single isomer, unassigned; (-)) [(−)-Scopolamine hydrochloride], the “KA by Frontal Analysis (association constant)” value [3] is given as “(2.39 ± 0.03) × 10^4 M^−1” and the “kd by the Radioligand Binding Assay” value [5] is given as 0.00517 ± 0.0005 s⁻¹.
With O=N[O-].[Na+] [sodium nitrite, Sodium nitrite] the “retention time” value ([1]; pH 7.4) was 1.1 min.
With CCCCC(=O)N(Cc1ccc(-c2ccccc2-c2nnn[nH]2)cc1)[C@H](C(=O)O)C(C)C [Valsartan] the “specific binding on the M3R-immobilized column” value ([1]; judged from retention time vs system void time) was “no specific binding occurred” and the “retention time” value [1, 6] was 2.3 min.
